# Assay results as given in PubChem BioAssay (NCI).
#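 Values below derive from 48-hour exposures of cells grown in 96-well plates, with endpoints linearly interpolated between the two concentrations bracketing the appropriate inhibition level. GI50 marks 50% less growth. At the TGI there is no net growth.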
# Experiments:
# Assay in all cases: growth of human tumour cells (NCI), 48 h
# UO-31 renal = tested on: UO-31 renal
# OVCAR-5 ovarian = tested on: OVCAR-5 ovarian
# A498 renal = tested on: A498 renal
# MDA-MB-231 breast = tested on: MDA-MB-231 breast
# SNB-75 CNS = tested on: SNB-75 CNS
# MOLT-4 leukemia = tested on: MOLT-4 leukemia
# SNB-19 CNS = tested on: SNB-19 CNS
# SN12C renal = tested on: SN12C renal
# UACC-257 melanoma = tested on: UACC-257 melanoma
# TK-10 renal = tested on: TK-10 renal
# T-47D breast = tested on: T-47D breast
# SF-268 CNS = tested on: SF-268 CNS
# PC-3 prostate = tested on: PC-3 prostate
# SR leukemia = tested on: SR leukemia
# MCF7 breast = tested on: MCF7 breast
# HCT-116 colon = tested on: HCT-116 colon
# BT-549 breast = tested on: BT-549 breast
# KM12 colon = tested on: KM12 colon
# 786-0 renal = tested on: 786-0 renal
# NCI-H23 lung = tested on: NCI-H23 lung
# SK-MEL-28 melanoma = tested on: SK-MEL-28 melanoma
# SF-295 CNS = tested on: SF-295 CNS
# SF-539 CNS = tested on: SF-539 CNS
# ACHN renal = tested on: ACHN renal
# A549 NSCLC = tested on: A549 NSCLC
# HOP-62 NSCLC = tested on: HOP-62 NSCLC
# SK-OV-3 ovarian = tested on: SK-OV-3 ovarian
# SK-MEL-2 melanoma = tested on: SK-MEL-2 melanoma
# MALME-3M melanoma = tested on: MALME-3M melanoma
# SW-620 colon = tested on: SW-620 colon
# K-562 leukemia = tested on: K-562 leukemia
# HL-60(TB) leukemia = tested on: HL-60(TB) leukemia
# UACC-62 melanoma = tested on: UACC-62 melanoma
# DU-145 prostate = tested on: DU-145 prostate
# U251 CNS = tested on: U251 CNS
# OVCAR-3 ovarian = tested on: OVCAR-3 ovarian
# RPMI-8226 leukemia = tested on: RPMI-8226 leukemia
# HCC-2998 colon = tested on: HCC-2998 colon
# M14 melanoma = tested on: M14 melanoma
# NCI/ADR-RES ovarian = tested on: NCI/ADR-RES ovarian
# IGROV1 ovarian = tested on: IGROV1 ovarian
# OVCAR-4 ovarian = tested on: OVCAR-4 ovarian
# MDA-MB-435 = tested on: MDA-MB-435
# HCT-15 colon = tested on: HCT-15 colon
# COLO 205 colon = tested on: COLO 205 colon
# NCI-H522 lung = tested on: NCI-H522 lung
# HT29 colon = tested on: HT29 colon
# NCI-H226 lung = tested on: NCI-H226 lung
# CCRF-CEM leukemia = tested on: CCRF-CEM leukemia
# HOP-92 NSCLC = tested on: HOP-92 NSCLC
# CAKI-1 renal = tested on: CAKI-1 renal
# OVCAR-8 ovarian = tested on: OVCAR-8 ovarian
# SK-MEL-5 melanoma = tested on: SK-MEL-5 melanoma
# HS 578T breast = tested on: HS 578T breast
# RXF 393 renal = tested on: RXF 393 renal
# LOX IMVI melanoma = tested on: LOX IMVI melanoma
# EKVX NSCLC = tested on: EKVX NSCLC
# NCI-H460 lung = tested on: NCI-H460 lung
smiles,measurement,setting,value
O=C1CCCCC=C1C[N+](=O)[O-],GI50,UO-31 renal,38.2 µM
same,TGI,UO-31 renal,> 100 µM
same,GI50,OVCAR-5 ovarian,21.9 µM
same,TGI,OVCAR-5 ovarian,41.6 µM
same,GI50,A498 renal,> 100 µM
same,TGI,A498 renal,> 100 µM
same,GI50,MDA-MB-231 breast,22.2 µM
same,TGI,MDA-MB-231 breast,49.4 µM
same,GI50,SNB-75 CNS,25.5 µM
same,TGI,SNB-75 CNS,68.8 µM
same,GI50,MOLT-4 leukemia,11.9 µM
same,TGI,MOLT-4 leukemia,31 µM
same,GI50,SNB-19 CNS,42.1 µM
same,TGI,SNB-19 CNS,> 100 µM
same,GI50,SN12C renal,31.6 µM
same,TGI,SN12C renal,> 100 µM
same,GI50,UACC-257 melanoma,28.6 µM
same,TGI,UACC-257 melanoma,> 100 µM
same,GI50,TK-10 renal,24.7 µM
same,TGI,TK-10 renal,54.8 µM
same,GI50,T-47D breast,26.6 µM
same,TGI,T-47D breast,88.1 µM
same,GI50,SF-268 CNS,30.8 µM
same,TGI,SF-268 CNS,> 100 µM
same,GI50,PC-3 prostate,41.1 µM
same,TGI,PC-3 prostate,> 100 µM
same,GI50,SR leukemia,3.7 µM
same,TGI,SR leukemia,12.3 µM
same,GI50,MCF7 breast,20 µM
same,TGI,MCF7 breast,55.1 µM
same,GI50,HCT-116 colon,17 µM
same,TGI,HCT-116 colon,50.8 µM
same,GI50,BT-549 breast,26 µM
same,TGI,BT-549 breast,61.4 µM
same,GI50,KM12 colon,45.1 µM
same,TGI,KM12 colon,> 100 µM
same,GI50,786-0 renal,17.6 µM
same,TGI,786-0 renal,39.6 µM
same,GI50,NCI-H23 lung,27.5 µM
same,TGI,NCI-H23 lung,69.9 µM
same,GI50,SK-MEL-28 melanoma,28.5 µM
same,TGI,SK-MEL-28 melanoma,92 µM
same,GI50,SF-295 CNS,46.4 µM
same,TGI,SF-295 CNS,> 100 µM
same,GI50,SF-539 CNS,27.7 µM
same,TGI,SF-539 CNS,74.2 µM
same,GI50,ACHN renal,15.6 µM
same,TGI,ACHN renal,31.2 µM
same,GI50,A549 NSCLC,38.2 µM
same,TGI,A549 NSCLC,> 100 µM
same,GI50,HOP-62 NSCLC,15.1 µM
same,TGI,HOP-62 NSCLC,45.6 µM
same,GI50,SK-OV-3 ovarian,> 100 µM
same,TGI,SK-OV-3 ovarian,> 100 µM
same,GI50,SK-MEL-2 melanoma,19.5 µM
same,TGI,SK-MEL-2 melanoma,44.4 µM
same,GI50,MALME-3M melanoma,30.3 µM
same,TGI,MALME-3M melanoma,53.5 µM
same,GI50,SW-620 colon,5.9 µM
same,TGI,SW-620 colon,26.1 µM
same,GI50,K-562 leukemia,22.5 µM
same,TGI,K-562 leukemia,> 100 µM
same,GI50,HL-60(TB) leukemia,14 µM
same,TGI,HL-60(TB) leukemia,> 100 µM
same,GI50,UACC-62 melanoma,18.7 µM
same,TGI,UACC-62 melanoma,34.6 µM
same,GI50,DU-145 prostate,27.3 µM
same,TGI,DU-145 prostate,96.3 µM
same,GI50,U251 CNS,33.9 µM
same,TGI,U251 CNS,> 100 µM
same,GI50,OVCAR-3 ovarian,23.9 µM
same,TGI,OVCAR-3 ovarian,69.1 µM
same,GI50,RPMI-8226 leukemia,25.5 µM
same,TGI,RPMI-8226 leukemia,58.5 µM
same,GI50,HCC-2998 colon,20.5 µM
same,TGI,HCC-2998 colon,43.6 µM
same,GI50,M14 melanoma,19.3 µM
same,TGI,M14 melanoma,45 µM
same,GI50,NCI/ADR-RES ovarian,36.3 µM
same,TGI,NCI/ADR-RES ovarian,> 100 µM
same,GI50,IGROV1 ovarian,33 µM
same,TGI,IGROV1 ovarian,> 100 µM
same,GI50,OVCAR-4 ovarian,21.4 µM
same,TGI,OVCAR-4 ovarian,46 µM
same,GI50,MDA-MB-435,20.6 µM
same,TGI,MDA-MB-435,41.2 µM
same,GI50,HCT-15 colon,13.5 µM
same,TGI,HCT-15 colon,35.8 µM
same,GI50,COLO 205 colon,11.6 µM
same,TGI,COLO 205 colon,39.7 µM
same,GI50,NCI-H522 lung,14.6 µM
same,TGI,NCI-H522 lung,37 µM
same,GI50,HT29 colon,19.3 µM
same,TGI,HT29 colon,50.3 µM
same,GI50,NCI-H226 lung,26 µM
same,TGI,NCI-H226 lung,73.3 µM
same,GI50,CCRF-CEM leukemia,5.7 µM
same,TGI,CCRF-CEM leukemia,23.3 µM
same,GI50,HOP-92 NSCLC,29 µM
same,TGI,HOP-92 NSCLC,51.9 µM
same,GI50,CAKI-1 renal,17.9 µM
same,TGI,CAKI-1 renal,45.8 µM
same,GI50,OVCAR-8 ovarian,26.6 µM
same,TGI,OVCAR-8 ovarian,> 100 µM
same,GI50,SK-MEL-5 melanoma,26.9 µM
same,TGI,SK-MEL-5 melanoma,74.3 µM
same,GI50,HS 578T breast,41.8 µM
same,TGI,HS 578T breast,> 100 µM
same,GI50,RXF 393 renal,14.7 µM
same,TGI,RXF 393 renal,35.2 µM
same,GI50,LOX IMVI melanoma,18.4 µM
same,TGI,LOX IMVI melanoma,39.1 µM
same,GI50,EKVX NSCLC,34.5 µM
same,TGI,EKVX NSCLC,> 100 µM
same,GI50,NCI-H460 lung,34.3 µM
same,TGI,NCI-H460 lung,> 100 µM
